Assay results from a melting point compilation (Tetko et al.; mined from patent text by program, amines drawn as free bases though some values may be those of a salt).

| melting point | SMILES |
| --- | --- |
| 245 °C | CC(C)C1=C(C#N)C(c2cccc3nocc23)c2c[nH]nc2N1 (stereo not given) |
| 205 to 210 °C | Cc1ccc(C(=O)N(C(C)C)C(C)C)c(F)c1C1=NC(C)(C(C)C)C(=O)N1 (stereo not given) |
| 80 to 95 °C | CN1CCCC1COc1ccc(-c2cccc(N)n2)c2ccccc12 (stereo not given) |
| 144 to 146 °C | O=C1CCC(c2ccccc2)=NN1c1cc(-c2ccnc(Nc3cccc(Cl)c3)n2)ccn1 |
| 295 to 297 °C | CCCn1cc2c(C3C(=O)Nc4ccc(Br)cc43)nc(NCC(O)CO)nc2n1 (stereo not given) |
| 204 to 206 °C | CCn1cc(C(=O)O)c(=O)c2cc(F)c(N3CCC(CN(C)C)C3)c(F)c21 (stereo not given) |
| 219 to 221 °C | COc1ccc(Sc2cncc3sc(C(N)=O)cc23)cc1 |
| 110 to 111 °C | COC(=O)c1cc2c3ccccc3n(CC3CC3)c2s1 |
| 97.5 to 98.5 °C | COc1ncc(-c2ccccc2)c(C(=O)N(C)Cc2cc(C(F)(F)F)cc(C(F)(F)F)c2)n1 |
| 42 to 44 °C | CCOC(=O)c1c(C)nc2nccnc2c1NCCCN(C)C |
| 154 to 155 °C | CCC1Cc2cc(NC(C)=O)ccc2C1=O (stereo not given) |
| 237 to 240 °C | COc1cc2c(cc1Cl)C(Cl)(c1ccccc1Cl)C(=O)N2 (stereo not given) |
| 157 to 159 °C | Cn1nc(-c2ccc(Cl)cc2)c2cc3ccccc3cc21 |
| 186 to 188 °C | O=C(NCCc1c[nH]c2ccc(C(=O)O)cc12)OCc1ccccc1 |
| 69 to 71 °C | COC(=O)C(=O)c1c(F)c(F)c(OCCOc2ccc3ccccc3c2)c(F)c1F |
| 112 °C | CCOc1ccc(-n2nc(C(F)(F)F)nc2-c2ccc(S(C)(=O)=O)cc2)cc1 |
| 103 °C | O=c1cc(-c2ccccc2)oc2cc(OCCCCCCN3CCCCC3)cc(O)c12 |
| 250 to 252 °C | Cc1nc(O)c(C)c(NCCc2ccncc2)n1 |
| 89 to 90 °C | CCOC(=O)Cc1ccccc1Oc1ccc(COc2cc(CC)nc3c2CCCC3)cc1 |

| melting point | SMILES |
| --- | --- |
| 215 to 217 °C | CCn1c(=O)ccc2cnc(Nc3ccc(F)cc3)nc21 |
| 133 to 135 °C | CCOC(=O)c1ccc(-c2n[nH]c3ccccc23)cc1 |
| 222 °C | CC(=O)NCCNc1ccc(C2=NNC(=O)CC2C)cc1[N+](=O)[O-] (stereo not given) |
| 159 to 160 °C | CCN(CC)CCn1c(=O)c2cc(OC)c(OC)cc2c2cnc3cc4c(cc3c21)OCO4 |
| 172 to 175 °C | NN1C(=O)c2ccc(Cl)cc2C1=O |
| 54 to 56 °C | CCCCc1ccc2c(n1)C(C(N)=S)CCC2 (stereo not given) |
| 271 to 273 °C | O=C1CCC(N2Cc3c(OCc4cc(Cl)cc(Cl)c4)cccc3C2=O)C(=O)N1 (stereo not given) |
| 105 to 108 °C | CCC1(CC)OC(=O)C(Cn2cncn2)(c2ccc(Cl)cc2)O1 (stereo not given) |
| 113 to 115 °C | COc1ccc(COC(=O)CC(=O)Oc2cc(-c3cn4c(n3)sc3ccccc34)ccc2Cl)cc1 |
| 157 to 158 °C | Cn1c(C=O)nnc1NCCCOc1cccc(CN2CCCCC2)c1 |
| 154 to 155 °C | COC(=O)C(Cc1ccc(OCCN(C)c2nc3ccccc3o2)cc1)OCC(=O)O (stereo not given) |
| 81 to 95 °C | CNC(=O)CN1CCc2cc(Nc3ncc(Cl)c(Nc4ccccc4OC)n3)c(OC)cc2CC1 |
| 222 to 224 °C | COc1cc(OC)c(-c2nc3cccnc3[nH]2)cc1C=CC(=O)c1ccc(C(=O)O)cc1 |
| 244 to 248 °C | C[C@H](NC(=O)c1ccc(N)cc1F)C(=O)O |
| 238 to 239 °C | COc1cc(OC)c2c(=O)cc(Oc3ccccc3)oc2c1C1CCN(C)CC1O (stereo not given) |
| 214 to 217 °C | OCCNc1nc2ccc(Cl)cc2c2nc(-c3ccco3)nn12 |
| 266 to 267 °C | CC(C)n1nc(-c2c(-c3ccccc3)nn3ccc(NC(=O)c4ccccc4)cc23)ccc1=O |
| 230 to 232 °C | O=C1Nc2ccccc2C12COc1ccc3c(c12)N(Cc1cccnc1)ON3 (stereo not given) |

Further lines, the compound ahead of its results:

| SMILES | melting point |
| --- | --- |
| COC(=O)CN(CC(=O)OC)c1cccc([N+](=O)[O-])c1 | 54 to 57 °C |
| O=C(O)C(O)c1cccnc1 (stereo not given) | 140 °C |
| O=c1ccn(-c2cccc(C(F)(F)F)c2)nc1-c1ccnn1CC1CC1 | 155 to 157 °C |
| Cc1noc(NS(=O)(=O)c2ccccc2-c2ccc(-c3ncco3)cc2CC(=O)NC(C)(C)C)c1C | 117 to 123 °C |
| CCOC(=O)C1CCCCC1Nc1cn[nH]c1 (stereo not given) | 92 to 94 °C |
| CCOC(=O)C(C)(C)S(=O)(=O)c1ccc(OC)cc1 | 196 °C |
| c1cncc(OCCCCCCOc2cccnc2)c1 | 85 °C |
| N[C@@H](CSCCC1CCN(C(=O)OCc2ccccc2)CC1)C(=O)O | 185 to 188 °C |
| Cc1nn(-c2cccnc2)cc1[N+](=O)[O-] | 122 to 124 °C |
| Cc1c(C)c2c(c(C)c1N)CC(C)(CNCCN1CCCCC1)O2 (stereo not given) | 102 to 104 °C |
| CC(O)(C#Cc1ccccc1)C(=O)O (stereo not given) | 104 to 106 °C |
| COc1ccc2c(c1OC)CCC1C(=O)NC(=O)C21 (stereo not given) | 217 to 219 °C |
| O=C(O)c1ccccc1C(=O)c1ccc(Cl)cc1Cl | 178 to 181 °C |
| CN1Cc2cc3ccc4c(c3c(-c3ccc5c(c3)OCO5)c2C1=O)OCO4 | 242 to 244 °C |
| CC(C)OC(=O)C(C(N)=O)=C1SCS1 | 128 to 129 °C |
| Cc1noc(NS(=O)(=O)c2ccccc2-c2cccs2)c1C | 112 to 115 °C |
| NC(=O)CSC(c1ccccc1)c1ccccc1 | 104 to 110 °C |
| Cc1cc(C(O)(C(F)(F)F)C(F)(F)F)c2ccccc2c1NS(C)(=O)=O | 174 °C |
| CC(=Cc1ccccc1)c1ccc2c(c1)SC(C)(C)S2 | 57 to 58 °C |
| O=C(Nc1ccccc1)c1ccc2c(c1)N(C1CC1)C=NS2(=O)=O | 278 to 281 °C |
| COc1cccc(Sc2cccc(N)c2C#N)c1 | 79 to 81 °C |
| CC(NC(=S)NCC(COC(=O)C(C)(C)C)Cc1ccc(C(C)(C)C)cc1)c1ccc(NS(C)(=O)=O)cc1 (stereo not given) | 87 °C |
| Cn1ccnc1S(=O)(=O)c1ccc(Cl)cc1 | 164 to 166 °C |

| SMILES | melting point |
| --- | --- |
| CN1C(=O)[C@@H](NC(=O)OC(C)(C)C)COc2ccccc21 | 152 °C |
| CCCN(CCC12CC3CC(CC(C3)C1)C2)C(=O)NCCCc1ccncc1 | 99 to 103 °C |
| COC(=O)C(=Cc1ccccc1)c1ccc2nc(-c3ccccc3)oc2c1 | 184 to 185 °C |
| CCN(C(=O)N(CC)c1ccc2c(c1)C(C)(C)CCC2(C)C)c1ccc(C(=O)O)cc1 | 169 to 172 °C |
| CCN1CCCC1c1cccc(OC(=O)NC)c1 (stereo not given) | 67 to 69 °C |
| COc1ccc(C(=O)NC2CCCCC2)c2c1OCC2CC(=O)O (stereo not given) | 246 to 247 °C |
| Cc1nnc(-c2ccc(F)cc2)n2nc(OCc3ncnn3C)c(-c3ccsc3)c12 | 171 to 177 °C |
| Nc1ccc(S(=O)(=O)c2cc(-c3cc(C(F)(F)F)cc(C(F)(F)F)c3)nc(N3CCCC3)c2)cc1 | 184 to 186 °C |
| Oc1ccc2nc(NC3=NCCN3)[nH]c2c1 | 254 to 258 °C |
| COc1cc(C2=C(c3c[nH]c4ccccc34)C(=O)NC2=O)cc(OC)c1OC | 227 °C |
| CC(=O)N[C@@H](CSC(=O)C(C)(C)C)C(=O)NCCSC(=O)C(C)C | 103 to 104 °C |
| Nc1cc(C=O)nc(CC2CC2)c1F | 99 to 100 °C |
| Nc1cc(OCCO)ncn1 | 133 to 137 °C |
| COC1(c2cccc(O)c2)OOC12C1CC3CC(C1)CC2C3 (stereo not given) | 135 °C |
| Cc1cc(C)c2c(=O)c(N)coc2c1 | 120 to 121 °C |
| O=[N+]([O-])c1ccc(OCCCl)cc1 | 60 °C |
| C=C(Nc1nc(-c2ccccc2)c(-c2nc3ccccc3c(=O)n2-c2ccc(OC)cc2)s1)c1ccco1 | 262 to 264 °C |
| CC(C#N)c1cccc2c(-c3ccc(Cl)cc3)nccc12 (stereo not given) | 128 to 130 °C |
| c1ccc2nc(Cn3ccnc3)ccc2c1 | 106 to 107 °C |
| Cc1cncn1CC(=O)CCc1ccc(Cl)cc1 | 227 to 228 °C |
| O=C(O)Cc1cc(C(=O)C=Cc2ccc(C(=O)O)cc2)ccc1O | > 260 °C |
| O=C(O)Cc1cc2c(s1)-c1ccccc1CC2 | 103 to 105 °C |
| CCc1cc(Cl)ccc1NC(C)=O | 117 to 122 °C |

| SMILES | melting point |
| --- | --- |
| O=[N+]([O-])c1ccc2ncccc2c1O | 245 °C |
| COc1ccc(N2CCN(CCC3OCCc4cc([Si](C)(C)C)ccc43)CC2)cc1 (stereo not given) | 78 to 80 °C |
| Cc1ccc(C(=O)NCN2CCN(c3ncccc3C#N)CC2)cc1 | 134 to 136 °C |
| CCCCC1C(=O)N(C(=O)NCCc2ccc(S(=O)(=O)NC(=O)NC3CCC(C)CC3)cc2)CCC1C (stereo not given) | 131 to 133 °C |
| COc1ccc(CC(=O)NC(NC(Cc2cccnc2C)=NC#N)C(C)(C)C)cc1OC (stereo not given) | 164 to 165 °C |
| CCC(CC)Nc1ncnc2c1ncn2C | 107 to 109 °C |
| Cc1cc(N2CCCC2)cc2c1C(=O)OC2=O | 222 to 225 °C |
| C=CCC(C(=O)NC)c1ccc(F)cc1 (stereo not given) | 104 to 105 °C |
| CC(C)(C)c1cc(-n2nc3ccc(Cl)cc3n2)c(O)c(C(C)(C)C)c1 | 151 to 154 °C |
| CC(=O)Oc1ccc(C=CC(=O)NC2CCc3ccccc32)cc1[N+](=O)[O-] (stereo not given) | 177 to 178 °C |
| CN(C)CCN(C)C(=O)Oc1ccc(Cl)cc1Cn1nc(-c2ccc(C(F)(F)F)cc2)oc1=O | 127 to 129 °C |
| CCC(=O)SCC(CC(=O)c1ccccc1)C(=O)O (stereo not given) | 76 to 78 °C |
| COC(=O)CCCCc1ccc(CN2CCN(c3ccncc3)CC2)cc1 | 53 to 54 °C |
| CNCc1ccc(-c2ccc(OC)c(Br)c2)cc1 | 65 to 68 °C |
| O=C(Nc1ccc(CC2CCN(S(=O)(=O)N3CCCCC3)CC2)cc1)C(F)(F)F | 156 to 157 °C |
| ClCc1coc(-c2cc3ccccc3s2)n1 | 150 to 151 °C |
| OC(c1ccccc1)c1ccc2cccnc2c1 (stereo not given) | 118 °C |
| CN(C)C(=O)c1cc(Cl)c(N)c(Cl)c1 | 134 °C |
| O=C(C=Cc1ccc(O)cc1)N1CCc2c([nH]c3ccccc23)C1c1ccc2c(c1)CCO2 (stereo not given) | 189 °C |
| Nc1c(SC(F)(F)F)nc(Cl)n1-c1c(Cl)cc(C(F)(F)F)cc1Cl | 172 °C |
| CC(=O)Nc1ccc(OC2SCC(OC(C)=O)C(OC(C)=O)C2OC(C)=O)cc1 (stereo not given) | 166 °C |
| O=C1NC(N2CCN(c3cnc(Cl)cn3)CC2)c2ccccc21 (stereo not given) | 263 to 266 °C |
